# Measured values taken from patent US8318752B2, “4-(3-chloro-2-fluoroanilino)-7-methoxy-6-{[1-(N-methylcarbamoyl-methyl)piperidin-4-yl]oxy}quinazoline, its pharmaceutically acceptable salts, and pharmaceutical compositions comprising the same” (Astrazeneca AB, priority 2003, dated 2012).
# Tests used:
# KB cells = experiment: EGFR driven KB cell proliferation assay, Test (b); type: cell-based; details: Homo sapiens, 96 h, EGF 1 ng/ml, 4 days, MTT
# Procedure: This assay measures the ability of a test compound to inhibit the proliferation of KB cells (human naso-pharangeal carcinoma obtained from the American Type Culture Collection (ATCC).
# KB cells (human naso-pharangeal carcinoma obtained from the ATCC were cultured in Dulbecco's modified Eagle's medium (DMEM) containing 10% foetal calf serum, 2 mM glutamine and non-essential amino acids at 37° C. in a 7.5% CO2 air incubator. Cells were harvested from the stock flasks using Trypsin/ethylaminediaminetetraacetic acid (EDTA). Cell density was measured using a haemocytometer and viability was calculated using trypan blue solution before being seeded at a density of 1.25×10^3 cells per well of a 96 well plate in DMEM containing 2.5% charcoal stripped serum, 1 mM glutamine and non-essential amino acids at 37° C. in 7.5% CO2 and allowed to settle for 4 hours.
# Following adhesion to the plate, the cells are treated with or without EGF (final concentration of 1 ng/ml) and with or without compound at a range of concentrations in dimethylsulfoxide (DMSO) (0.1% final) before incubation for 4 days. Following the incubation period, cell numbers were determined by addition of 50 μl of 3-(4,5-Dimethylthiazol-2-yl)-2,5-diphenyltetrazolium bromide (MTT) (stock 5 mg/ml) for 2 hours. […]
# Absorbance of the solubilised cells was read at 540 nm using a Molecular Devices ThermoMax microplate reader. […]
# EGFR tyrosine kinase = molecular target: T1, EGFR tyrosine kinase (Homo sapiens, UniProt P00533); experiment: Protein tyrosine kinase phosphorylation assay, Test (a), EGFR; type: biochemical; details: recombinant intracellular fragment, ATP at Km; read-out: IC50 (μM) Test (a): Inhibition of EGFR tyrosine kinase protein phosphorylation
# T1 construct: Recombinant intracellular fragments of EGFR, erbB2 and erbB4; made in house; host or cells: baculovirus/Sf21
# T1 sequence (P00533 669-1210 limits assumed): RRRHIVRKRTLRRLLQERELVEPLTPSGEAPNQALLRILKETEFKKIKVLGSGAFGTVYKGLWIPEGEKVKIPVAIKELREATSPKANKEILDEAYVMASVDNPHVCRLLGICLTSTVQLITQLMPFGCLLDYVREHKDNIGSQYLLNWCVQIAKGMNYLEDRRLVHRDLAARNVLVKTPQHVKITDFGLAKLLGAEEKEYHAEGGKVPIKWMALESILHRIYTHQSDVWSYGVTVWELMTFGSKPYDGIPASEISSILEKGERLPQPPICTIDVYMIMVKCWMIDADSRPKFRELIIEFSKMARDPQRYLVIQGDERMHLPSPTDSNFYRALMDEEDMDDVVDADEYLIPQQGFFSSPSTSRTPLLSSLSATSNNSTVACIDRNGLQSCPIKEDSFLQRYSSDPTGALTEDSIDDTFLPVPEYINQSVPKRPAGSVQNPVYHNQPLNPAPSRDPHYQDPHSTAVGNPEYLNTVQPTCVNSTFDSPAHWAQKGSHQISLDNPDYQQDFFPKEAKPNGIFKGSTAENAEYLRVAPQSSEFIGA
# Procedure: (§1) This test measures the ability of a test compound to inhibit the phosphorylation of a tyrosine containing polypeptide substrate by EGFR or ErbB2 tyrosine kinase enzyme.
# (§2) Recombinant intracellular fragments of EGFR, erbB2 and erbB4 (accession numbers X00588, X03363 and L07868 respectively) were cloned and expressed in the baculovirus/Sf21 system. Lysates were prepared from these cells by treatment with ice-cold lysis buffer (20 mM N-2-hydroxyethylpiperizine-N′-2-ethanesulfonic acid (HEPES) pH7.5, 150 mM NaCl, 10% glycerol, 1% Triton X-100, 1.5 mM MgCl2, 1 mM ethylene glycol-bis(β-aminoethyl ether) N′,N′,N′,N′-tetraacetic acid (EGTA), plus protease inhibitors and then cleared by centrifugation.
# (§3) Constitutive kinase activity of the recombinant protein was determined by its ability to phosphorylate a synthetic peptide (made up of a random co-polymer of Glutamic Acid, Alanine and Tyrosine in the ratio of 6:3:1). Specifically, Maxisorb™ 96-well immunoplates were coated with synthetic peptide (0.2 μg of peptide in a 100 μl phosphate buffered saline (PBS) solution and incubated at 4° C. overnight). Plates were washed in PBS-T (phosphate buffered saline with 0.5% Tween 20) then in 50 mM HEPES pH 7.4 at room temperature to remove any excess unbound synthetic peptide. […]
# (§4) The immobilised phospho-peptide product of the reaction was detected by immunological methods. […] After further washing, HRP activity in each well of the plate was measured colorimetrically using 22′-Azino-di-[3-ethylbenzthiazoline sulfonate (6)] diammonium salt crystals (ABTS™ from Roche) as a substrate.
# (§5) Quantification of colour development and thus enzyme activity was achieved by the measurement of absorbance at 405 nm on a Molecular Devices ThermoMax microplate reader. Kinase inhibition for a given compound was expressed as an IC50 value. […] The range of phosphorylation was calculated from the positive (vehicle plus ATP) and negative (vehicle minus ATP) control values.
# erbB2 tyrosine kinase = molecular target: T2, erbB2 tyrosine kinase (Homo sapiens, UniProt P04626); experiment: Protein tyrosine kinase phosphorylation assay, Test (a), erbB2; type: biochemical; details: recombinant intracellular fragment, ATP at Km; read-out: IC50 (μM) Test (a): Inhibition of erbB2 tyrosine kinase protein phosphorylation
# T2 construct: Recombinant intracellular fragments of EGFR, erbB2 and erbB4; made in house; host or cells: baculovirus/Sf21
# T2 sequence (P04626 676-1255 limits assumed): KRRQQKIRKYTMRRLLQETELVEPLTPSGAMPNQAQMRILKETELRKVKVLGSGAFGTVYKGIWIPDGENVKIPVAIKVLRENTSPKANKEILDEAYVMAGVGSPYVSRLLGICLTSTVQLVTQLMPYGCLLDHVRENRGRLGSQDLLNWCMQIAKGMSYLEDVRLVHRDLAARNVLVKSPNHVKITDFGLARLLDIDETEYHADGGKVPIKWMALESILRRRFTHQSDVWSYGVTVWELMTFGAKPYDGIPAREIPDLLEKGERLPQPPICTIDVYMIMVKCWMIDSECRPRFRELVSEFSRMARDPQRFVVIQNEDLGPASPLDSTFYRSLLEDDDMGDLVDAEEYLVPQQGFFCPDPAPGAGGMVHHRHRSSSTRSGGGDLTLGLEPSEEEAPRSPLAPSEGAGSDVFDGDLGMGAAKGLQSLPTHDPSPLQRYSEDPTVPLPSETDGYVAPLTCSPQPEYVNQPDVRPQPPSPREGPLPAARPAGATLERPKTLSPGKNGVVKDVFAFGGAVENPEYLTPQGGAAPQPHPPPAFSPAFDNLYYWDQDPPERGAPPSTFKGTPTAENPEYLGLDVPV
# Procedure: as §1, §2, §3, §4, §5
# erbB2 = molecular target: T3, erbB2 (Homo sapiens, UniProt P04626); experiment: Clone 24 phospho-erbB2 cell assay, Test (e); type: cell-based; details: MCF7 derived Clone 24 cells overexpressing erbB2, 4 hrs; read-out: IC50 (μM) Test (e): Inhibition of erbB2 tyrosine kinase protein phosphorylation
# T3 construct: overexpresses full length wild type erbB2 protein; expressed in transfected cells; host or cells: MCF7 (breast carcinoma) derived Clone 24 cells
# T3 sequence (P04626 23-1255): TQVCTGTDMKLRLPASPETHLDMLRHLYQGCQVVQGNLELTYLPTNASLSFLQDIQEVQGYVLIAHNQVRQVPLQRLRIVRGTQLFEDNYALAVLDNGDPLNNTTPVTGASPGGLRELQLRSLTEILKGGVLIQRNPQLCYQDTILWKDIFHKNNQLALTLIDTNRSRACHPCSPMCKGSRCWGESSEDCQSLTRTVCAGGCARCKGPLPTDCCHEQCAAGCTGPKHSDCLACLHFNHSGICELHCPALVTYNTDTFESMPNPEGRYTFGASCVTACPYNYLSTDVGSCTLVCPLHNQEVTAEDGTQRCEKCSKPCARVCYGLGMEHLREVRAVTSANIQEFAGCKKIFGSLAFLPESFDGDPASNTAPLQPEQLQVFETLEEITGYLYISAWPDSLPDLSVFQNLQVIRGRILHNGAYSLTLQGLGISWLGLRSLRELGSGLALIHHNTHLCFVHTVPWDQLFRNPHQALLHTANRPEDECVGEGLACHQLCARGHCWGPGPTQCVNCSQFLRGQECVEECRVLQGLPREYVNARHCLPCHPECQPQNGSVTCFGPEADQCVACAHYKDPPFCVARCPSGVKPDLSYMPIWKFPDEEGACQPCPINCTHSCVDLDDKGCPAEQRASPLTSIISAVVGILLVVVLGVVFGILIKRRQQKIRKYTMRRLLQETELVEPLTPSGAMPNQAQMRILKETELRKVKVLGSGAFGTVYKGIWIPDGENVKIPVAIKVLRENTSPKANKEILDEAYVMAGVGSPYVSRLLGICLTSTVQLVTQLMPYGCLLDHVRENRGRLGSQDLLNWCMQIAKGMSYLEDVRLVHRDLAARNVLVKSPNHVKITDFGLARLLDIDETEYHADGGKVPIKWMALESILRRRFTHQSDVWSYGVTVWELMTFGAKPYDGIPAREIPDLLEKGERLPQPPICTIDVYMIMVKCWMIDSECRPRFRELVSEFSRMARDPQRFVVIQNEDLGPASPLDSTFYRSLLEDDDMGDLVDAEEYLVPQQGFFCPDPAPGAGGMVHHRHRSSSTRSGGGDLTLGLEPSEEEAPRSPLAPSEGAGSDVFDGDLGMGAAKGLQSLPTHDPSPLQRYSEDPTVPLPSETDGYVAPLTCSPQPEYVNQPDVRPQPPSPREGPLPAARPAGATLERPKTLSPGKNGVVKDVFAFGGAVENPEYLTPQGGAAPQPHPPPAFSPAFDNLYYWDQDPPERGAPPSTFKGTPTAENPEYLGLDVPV
# Procedure: This immunofluorescence end point assay measures the ability of a test compound to inhibit the phosphorylation of erbB2 in a MCF7 (breast carcinoma) derived cell line which was generated by transfecting MCF7 cells with the full length erbB2 gene using standard methods to give a cell line that overexpresses full length wild type erbB2 protein (hereinafter ‘Clone 24’ cells).
# Clone 24 cells were cultured in Growth Medium (phenol red free Dulbecco's modified Eagle's medium (DMEM) containing 10% foetal bovine serum, 2 mM glutamine and 1.2 mg/ml G418) in a 7.5% CO2 air incubator at 37° C. Cells were harvested from T75 stock flasks by washing once in PBS (phosphate buffered saline, pH7.4, Gibco No. 10010-015) and harvested using 2 mls of Trypsin (1.25 mg/ml)/ethylaminediaminetetraacetic acid (EDTA) (0.8 mg/ml) solution. The cells were resuspended in Growth Medium. Cell density was measured using a haemocytometer and viability was calculated using Trypan Blue solution before being further diluted in Growth Medium and seeded at a density of 1×10^4 cells per well (in 100 ul) into clear bottomed 96 well plates (Packard, No. 6005182).
# 3 days later, Growth Medium was removed from the wells and replaced with 100 ul Assay Medium (phenol red free DMEM, 2 mM glutamine, 1.2 mg/ml G418) either with or without erbB inhibitor compound. Plates were returned to the incubator for 4 hrs and then 20 μl of 20% formaldehyde solution in PBS was added to each well and the plate was left at room temperature for 30 minutes. This fixative solution was removed with a multichannel pipette, 100 μl of PBS was added to each well and then removed with a multichannel pipette and then 50 μl PBS was added to each well. Plates were then sealed and stored for up to 2 weeks at 4° C.
# Immunostaining was performed at room temperature. […]
# The Fluorescence signal is each well was measured using an Acumen Explorer Instrument (Acumen Bioscience Ltd.), a plate reader that can be used to rapidly quantitate features of images generated by laser-scanning. […]
Compound,IC50 (KB cells) [µM],IC50 (EGFR tyrosine kinase) [µM],IC50 (erbB2 tyrosine kinase) [µM],IC50 (erbB2) [µM]
"CNC(=O)CN1CCC(Oc2cc3c(Nc4ccc(F)c(Cl)c4F)ncnc3cc2OC)CC1 [Example 5, 4-(3-chloro-2,4-difluoroanilino)-7-methoxy-6-{[1-(N-methycarbamoylmethyl)piperidin-4-yl]oxy}quinazoline]",0.009,0.004,0.047,0.006
"COc1cc2ncnc(Nc3cccc(Cl)c3F)c2cc1OC1CCN(CC(=O)N2CCN(C)CC2)CC1 [Example 10, 4-(3-chloro-2-fluoroanilino)-7-methoxy-6-({1-[2-(4-methylpiperazin-1-yl)-2-oxoethyl]piperidin-4-yl}oxy)quinazoline]",,0.004,0.01,0.013
"COc1cc2ncnc(Nc3cccc(Cl)c3F)c2cc1OC1CCN(CC(=O)NCCN2CCCC2)CC1 [Example 7, 4-(3-chloro-2-fluoroanilino)-7-methoxy-6-{[1-(N-[2-(pyrrolidin-1-yl)ethyl]carbamoylmethyl)piperidin-4-yl]oxy}quinazoline]",0.017,0.003,0.013,0.014
